According to article PMC3266282, “Role of AMP-Activated Protein Kinase on Steroid Hormone Biosynthesis in Adrenal NCI-H295R Cells” (PLoS ONE, 2012):

Target: T1, CYP17A1 (17α-hydroxylase/17,20 lyase) (Homo sapiens, UniProt P05093)
T1 construct: human recombinant CYP17A1 co-expressed with POR in yeast microsomes; with human P450 oxidoreductase (POR)
T1 sequence (P05093 1-508): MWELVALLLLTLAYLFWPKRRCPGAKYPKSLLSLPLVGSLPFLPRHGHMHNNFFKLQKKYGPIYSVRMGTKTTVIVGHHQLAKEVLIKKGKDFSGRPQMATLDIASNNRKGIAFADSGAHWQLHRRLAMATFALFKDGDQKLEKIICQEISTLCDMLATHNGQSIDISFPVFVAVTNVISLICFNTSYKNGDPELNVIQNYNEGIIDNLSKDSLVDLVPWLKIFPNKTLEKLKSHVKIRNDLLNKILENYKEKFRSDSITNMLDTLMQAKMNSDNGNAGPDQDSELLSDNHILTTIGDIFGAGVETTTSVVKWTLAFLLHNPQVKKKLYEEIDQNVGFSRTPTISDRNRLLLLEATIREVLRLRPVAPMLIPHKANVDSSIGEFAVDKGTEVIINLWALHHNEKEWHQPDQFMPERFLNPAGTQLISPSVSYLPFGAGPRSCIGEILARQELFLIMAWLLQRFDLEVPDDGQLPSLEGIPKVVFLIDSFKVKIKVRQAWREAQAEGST
T1 sequence (P16435 2-677 partner): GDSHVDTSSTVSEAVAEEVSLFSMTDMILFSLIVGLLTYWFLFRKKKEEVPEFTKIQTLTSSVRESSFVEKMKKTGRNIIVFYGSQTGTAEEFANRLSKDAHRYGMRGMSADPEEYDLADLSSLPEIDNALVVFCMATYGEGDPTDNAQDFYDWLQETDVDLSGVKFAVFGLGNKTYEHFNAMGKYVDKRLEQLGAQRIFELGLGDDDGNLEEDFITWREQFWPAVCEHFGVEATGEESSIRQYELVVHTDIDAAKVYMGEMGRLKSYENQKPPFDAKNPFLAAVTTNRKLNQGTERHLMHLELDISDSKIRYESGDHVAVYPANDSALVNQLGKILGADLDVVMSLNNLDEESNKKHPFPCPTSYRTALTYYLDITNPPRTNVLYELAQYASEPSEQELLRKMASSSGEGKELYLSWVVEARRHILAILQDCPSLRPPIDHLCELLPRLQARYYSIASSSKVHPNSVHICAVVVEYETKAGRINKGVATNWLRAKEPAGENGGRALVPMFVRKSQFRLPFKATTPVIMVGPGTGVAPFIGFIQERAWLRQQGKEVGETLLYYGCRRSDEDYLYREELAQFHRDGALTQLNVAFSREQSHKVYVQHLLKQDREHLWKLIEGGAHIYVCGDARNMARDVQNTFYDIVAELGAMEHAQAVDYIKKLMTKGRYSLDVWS
Assay: […]α-hydroxylase activity in yeast microsomes with radiolabelled steroid substrate, TLC readout, dose-response
Type: biochemical

## c1cc(-c2cnn3cc(-c4ccc(OCCN5CCCCC5)cc4)cnc23)ccn1 [compound C]
  IC50: 9.6 nM
